The source of these data is US12290535B2, “Langerin+ cell targeting” (Max-Planck-Gesellschaft zur Förderung der Wissenschaften …, priority 2018, dated 2025).

One series has as its target T1, Langerin ECD (Homo sapiens, UniProt Q9UJ71, V278A).
T1 construct: residues 148 to 328; TEV site (C); StreptagII (C); made in house; host or cells: E. coli BL21* (DE3)
The experiment in a line: 19F R2-filtered NMR reporter displacement assay (Ki determination). As to conditions: Langerin ECD 50 μM, pH 7.8, 25° C. The format is binding. How it is done:
Langerin extracellular domain. Expression and purification were conducted as previously published (Wamhoff, E. C. et al. (19)F Nmr-Guided Design of Glycomimetic Langerin Ligands. ACS Chem Biol, 11, 2407-13 (2016)). Briefly, the trimeric Langerin extracellular domain (ECD) was expressed insolubly in E. coli BL21* (DE3) (Invitrogen). Following enzymatic cell lysis, inclusion bodies were harvested and subsequently solubilized. The sample was centrifuged and the Langerin ECD was refolded overnight via rapid dilution. Next, the sample was dialyzed overnight, centrifuged and purified via mannan-agarose affinity chromatography (Sigma Aldrich). For ^19F R2-filtered NMR and lipid-enzyme-linked lectin assay (Lipid-ELLA) experiments, the buffer was exchanged to 25 mM Tris with 150 mM NaCl and 5 mM CaCl2 at pH 7.8 using 7 kDa size-exclusion desalting columns (Thermo Scientific). For STD NMR experiments, Langerin ECD samples were dialyzed five times for at least 8 h against H2O. Subsequently, the H2O was removed via lyophilization and the residue was stored at −80° C. Prior to STD NMR experiments, the Langerin ECD was dissolved in 25 mM Tris-d11 (Eurisotope) with 100% D2O, 150 mM NaCl and 5 mM CaCl2 at pH 7. The concentration of Langerin ECD was determined via UV spectroscopy (A280, 0.1%=2.45). Purity and monodispersity of Langerin ECD samples were analyzed via SDS PAGE and DLS.
General remarks. ^19F R2-filtered NMR experiments were conducted on a PremiumCompact 600 MHz spectrometer (Agilent). Spectra were processed in MestReNova and data analysis was performed with OriginPro (Mestrelab Research. Mestrenova. 11.0.2. (2016); OriginLab. Originpro. 9.1. (2015)). Experiments with the Langerin ECD were performed at a receptor concentration of 50 μM in 25 mM Tris with 10% D2O, 150 mM NaCl and 5 mM CaCl2 at pH 7.8 and 25° C. Experiments with the DC-SIGN CRD were performed at a receptor concentration of 50 μM in 25 mM HEPES with 10% D2O, 150 mM NaCl and 5 mM CaCl2 at pH 7.0 and 25° C. TFA served as an internal reference at a concentration of 50 μM. Apparent relaxation rates R2,obs for the reporter ligand were determined using the CPMG pulse sequence as previously published (Wamhoff, E. C. et al. (19)F Nmr-Guided Design of Glycomimetic Langerin Ligands. ACS Chem Biol, 11, 2407-13 (2016): Carr, H. Y. & Purcell, E. M. Effects of Diffusion on Free Precession in Nuclear Magnetic Resonance Experiments. Phys Rev, 94, 630-638 (1954); Meiboom, S. & Gill, D. Modified Spin-Echo Method for Measuring Nuclear Relaxation Times. Rev Sci Instrum 29, 688-691 (1958)).
Ki determination. Ki values were determined as previously published for Langerin (Wamhoff, E. C. et al. (19)F NMR-Guided Design of Glycomimetic Langerin Ligands. ACS Chem Biol 11, 2407-13 (2016)). Briefly, titration experiments were conducted at a concentration of 0.1 mM of reporter ligand 24 at five competitor concentrations [I]T. Samples were prepared via serial dilution. For the acids GlcNS, GlcNAc-6-OS and GlcNS-6-OS the pH values were monitored and adjusted to 7.8 if necessary.

The next series deals with hLangerin+ Raji cells. The series can be described thus: cell-based binding and internalization assay of functionalized GFP. On the set-up: species or system human. Conditions: 4° C., in words. On the procedure: In FIG. 21 (A) the binding and uptake of functionalized GFP at 4° C. and 37° C. was dose-dependently measured by flow cytometry with Raji and Langerin^+ Raji cells. In FIG. 21 (B) GFP and liposomes were incubated for various time points with Langerin^+ Raji cells. Here, FITC-BSA encapsulated liposomes were utilized to compare the FITC fluorescence with the GFP fluorescence.
Functionalized GFP was then tested in a cell-based binding and internalization assay. Both GlcNTosyl functionalized GFP and unconjugated GFP were incubated with WT or hLangerin^+ Raji cells at 4° C. and at 37° C. for 1 h or 2 h, respectively (see FIG. 21). Targeted GFP specifically bound to Langerin expressing cells and saturated at concentrations above 1 μg/ml (see FIG. 21 (A)). […] GFP fluorescence was slightly elevated compared to the binding assay and also saturated above 1 μg/ml.

The target of a further series is T2, DC-SIGN (Homo sapiens, UniProt Q9NNX6).
T2 sequence (Q9NNX6 1-404): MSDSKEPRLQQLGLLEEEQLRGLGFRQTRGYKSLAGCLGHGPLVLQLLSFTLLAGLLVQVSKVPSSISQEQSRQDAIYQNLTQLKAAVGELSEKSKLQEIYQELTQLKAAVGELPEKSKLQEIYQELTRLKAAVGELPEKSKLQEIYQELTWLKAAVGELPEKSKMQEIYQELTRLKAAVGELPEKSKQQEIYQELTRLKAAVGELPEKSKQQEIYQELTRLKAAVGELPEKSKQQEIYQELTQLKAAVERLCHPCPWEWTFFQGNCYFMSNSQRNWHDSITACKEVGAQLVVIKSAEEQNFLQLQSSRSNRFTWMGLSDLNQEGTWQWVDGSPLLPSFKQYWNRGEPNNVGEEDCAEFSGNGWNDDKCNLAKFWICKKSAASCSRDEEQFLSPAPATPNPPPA
Conditions: literature; cited from earlier work.

Another series addresses T3, DC-SIGN CRD (Homo sapiens, UniProt Q9NNX6).
T3 construct: residues 205 to 404; TEV site (C); StreptagII (C); made in house; host or cells: E. coli BL21* (DE3)
T3 sequence (Q9NNX6 250-404): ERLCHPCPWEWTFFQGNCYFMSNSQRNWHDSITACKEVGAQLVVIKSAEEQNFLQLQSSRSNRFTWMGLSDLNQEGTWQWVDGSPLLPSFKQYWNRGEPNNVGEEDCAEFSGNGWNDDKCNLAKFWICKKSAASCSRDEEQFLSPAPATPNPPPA
The series can be described thus: 19F R2-filtered NMR reporter displacement assay transferred to DC-SIGN. Type of series: binding. As to conditions: 19F R2-filtered NMR, DC-SIGN CRD 50 μM, pH 7.0, 25° C. How it is done: Langerin and DC-SIGN carbohydrate recognition domain. Expression and purification were conducted as previously published. Briefly, the monomeric ^15N-labeled Langerin and DC-SIGN carbohydrate recognition domains (CRDs) were expressed insolubly in E. coli BL21* (DE3) (Invitrogen). Following enzymatic cell lysis, inclusion bodies were harvested and subsequently solubilized. The sample was centrifuged and the Langerin and DC-SIGN CRDs were refolded overnight via rapid dilution. Next, the sample was dialyzed overnight, centrifuged and purified via StrepTactin affinity chromatography (Iba). After an additional dialysis step overnight, the sample was centrifuged and the buffer was exchanged to 25 mM HEPES with 150 mM NaCl at pH 7.0 using 7 kDa size-exclusion desalting columns (Thermo Scientific) for ^19F R2-filtered and ^15N HSQC NMR experiments. The concentration of Langerin and DC-SIGN CRDs was determined via UV spectroscopy (A280, 0.1%=3.19 and A280, 0.1%=2.98). Purity and monodispersity of Langerin and DC-SIGN CRD samples were analyzed via SDS PAGE and DLS.
General remarks. ^19F R2-filtered NMR experiments were conducted on a PremiumCompact 600 MHz spectrometer (Agilent). […] Apparent relaxation rates R2,obs for the reporter ligand were determined using the CPMG pulse sequence as previously published (Wamhoff, E. C. et al. (19)F Nmr-Guided Design of Glycomimetic Langerin Ligands. ACS Chem Biol, 11, 2407-13 (2016): Carr, H. Y. & Purcell, E. M. Effects of Diffusion on Free Precession in Nuclear Magnetic Resonance Experiments. Phys Rev, 94, 630-638 (1954); Meiboom, S. & Gill, D. Modified Spin-Echo Method for Measuring Nuclear Relaxation Times. Rev Sci Instrum 29, 688-691 (1958)).
Assay development for DC-SIGN. […] Briefly, the KD value and the relaxation rate in bound state R2,b were determined at five concentrations [L]T of reporter ligand 24 in three independent titration experiments. […]
Ki determination. Ki values were determined as previously published for Langerin (Wamhoff, E. C. et al. (19)F NMR-Guided Design of Glycomimetic Langerin Ligands. ACS Chem Biol 11, 2407-13 (2016)). […]

The next series relates to Langerin+ cells. The experiment in a line: in vitro cytotoxicity, Annexin-V / 7-AAD staining. Type of series: cell-based. As to conditions: 50% DMSO for 3 min, positive control. On the procedure: Liposomes consist mainly of phospholipids and cholesterol. […] As a positive control, cells were treated for 3 min with 50% DMSO. Untreated cells were applied as negative controls. Cells were washed and resuspended in 25 μl buffer (10 mM HEPES, 140 mM NaCl and 2.5 mM CaCl2), pH7.4) containing 1:100 diluted Annexin-V-FITC (Adipogen). Cells were incubated for 10 min in the dark at room temperature. After washing, cells were resuspended in 100 μl buffer containing 1 μl 7-AAD solution (Biolegend) and incubated for 5-10 min in the dark at room temperature. Cells were directly measured without any further washing steps by flow cytometry. […] Annexin-V was detected with a 530/30 filter, 7-AAD with a 695/40 filter and Alexa647 with a 670/14 filter (Attune Nxt, life technologies). […] Langerin targeted liposomes were incubated with cells for extended time periods up to 72 h, and cell toxicity was subsequently analyzed (see FIG. 17).
Early apoptotic effects were detected with Annexin-V staining that binds translocated phosphatidylserine, whereas late apoptotic cells were stained with 7-AAD a cell impermeable fluorescent intercalator that associates to DNA and undergoes a spectral shift. […] After doublet discrimination, single cells were analyzed for Annexin-V-FITC and 7-AAD staining in a bivariate histogram by dividing the plot in four quadrants. […]

T1 sequence (Q9UJ71 148-328 V278A): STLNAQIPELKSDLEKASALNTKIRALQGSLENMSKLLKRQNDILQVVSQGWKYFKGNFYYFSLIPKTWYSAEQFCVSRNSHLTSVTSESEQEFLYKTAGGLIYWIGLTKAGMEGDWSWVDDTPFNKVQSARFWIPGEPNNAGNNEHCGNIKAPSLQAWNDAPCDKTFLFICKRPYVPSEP

For `CC(=O)N[C@H]1C(O)O[C@H](COS(=O)(=O)O)[C@@H](O)[C@@H]1O` (stereo partly shown) [GlcNAc-6-OS, N-acetyl glucosamine-6-sulfate], the affinity at Langerin ECD, expressed as Ki, was 0.6 ± 0.1 mM.

Molecule `O=S(=O)(O)N[C@H]1C(O)O[C@H](COS(=O)(=O)O)[C@@H](O)[C@@H]1O` (stereo partly shown) [GlcNS-6-OS, glucosamine-2-sulfate-6-sulfate] yielded a Ki at Langerin ECD of 0.28 ± 0.06 mM.

As for “Unconjugated GFP: Green Fluorescence Protein without ligand, SEQ ID NO: 82”, the fluorescence signal entry in the series on hLangerin+ Raji cells was “did not show increased fluorescence signals”. Molecule `OC[C@H]1OC(O)[C@H](O)[C@@H](O)[C@@H]1O` (stereo partly shown) [Glc] returned a Ki on Langerin ECD of 21 ± 4 mM.

On to `O=S(=O)(O)N[C@H]1C(O)O[C@H](CO)[C@@H](O)[C@@H]1O` (stereo partly shown) [GlcNS, glucosamine-2-sulfate], for which the inhibition constant Ki on Langerin ECD was found to be 1.4 ± 0.2 mM. On to `CC(=O)N[C@H]1C(O)O[C@H](CO)[C@@H](O[C@@H]2O[C@H](CO)[C@H](O)[C@H](O)[C@H]2O)[C@@H]1O[C@@H]1O[C@@H](C)[C@@H](O)[C@@H](O)[C@@H]1O` (stereo partly shown) [Le^X], for which the Kd at DC-SIGN was about 1 mM. `CC(=O)N[C@H]1C(O)O[C@H](CO)[C@@H](O)[C@@H]1O` (stereo partly shown) [GlcNAc, N-acetyl glucosamine] showed a Ki at Langerin ECD of 4.1 ± 0.7 mM. As for `O=C[C@@H](O)[C@@H](O)[C@H](O)[C@H](O)CO` [Man, mannose], the Ki is 4.5 ± 0.5 mM at Langerin ECD and 3 ± 0.3 mM on DC-SIGN CRD.

The molecule `C[S+](C)[O-]` [DMSO] displayed a dead cells with Langerin+ cells of 98%.

The term Ki denotes the equilibrium dissociation constant of an inhibitor or competing ligand from its target. A high value points to weaker binding. Broadly, the Kd is the constant that tells how readily two partners part at equilibrium.
